Patent US20100298141A1, “SUBSTITUTED PYRIDINE N-OXIDE HERBICIDES” (E. I. DU PONT DE NEMOURS AND COMPANY, priority 2007, published 2010)

Legend:
crabgrass = experiment: Test C pre-/postemergence test; type: in vivo, Digitaria sanguinalis
In short: (§1)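 Compounds in a non-phytotoxic solvent with surfactant applied preemergence to seeded pots and, at the same time, postemergence to plants 2–18 cm tall (1- to 4-leaf stage). Paddy tests: pots flooded to 3 cm, compound applied into the water, depth held throughout.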

kochia = experiment: Test C pre-/postemergence test; type: in vivo, Kochia scoparia
In short: as §1

blackgrass = experiment: Test C pre-/postemergence test; type: in vivo, Alopecurus myosuroides
In short: as §1

barnyardgrass = experiment: Test A pre-/postemergence greenhouse test; type: in vivo, Echinochloa crus-galli; conditions: for Plant response rating, Barnyardgrass: 0 to 100 scale where 0 is no effect and 100 is complete control; for Barnyardgrass plant response rating: 0 to 100 scale
In short: (§2)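 Planting was into mixed loam soil and sand; preemergence treatment followed as a directed soil spray. Concurrently, emerged plants (one- to two-leaf, 2–10 cm) received postemergence applications of identically formulated compound (non-phytotoxic solvent, surfactant). After approximately ten days under greenhouse conditions, injury was judged by eye against untreated plants.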

morningglory [1] = experiment: Test C pre-/postemergence test; type: in vivo, Ipomoea coccinea
In short: as §1

cocklebur = experiment: Test C pre-/postemergence test; type: in vivo, Xanthium strumarium
In short: as §1

yellow nutsedge = experiment: Test C pre-/postemergence test; type: in vivo, Cyperus esculentus
In short: as §1

morningglory [2] = experiment: Test A pre-/postemergence greenhouse test; type: in vivo, Ipomoea spp.; conditions: for Plant response rating, Morningglory: 0 to 100 scale where 0 is no effect and 100 is complete control; for Morningglory plant response rating: 0 to 100 scale
In short: as §2

umbrella sedge = experiment: Test C flooded paddy test; type: in vivo, Cyperus difformis; conditions: Flood
In short: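 Ratings were visual and made relative to untreated controls after 13 to 15 greenhouse days.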

corn = experiment: Test C pre-/postemergence test; type: in vivo, Zea mays
In short: as §1

green foxtail = experiment: Test C pre-/postemergence test; type: in vivo, Setaria viridis
In short: as §1

pigweed = experiment: Test C pre-/postemergence test; type: in vivo, Amaranthus retroflexus
In short: as §1

soybean = experiment: Test C pre-/postemergence test; type: in vivo, Glycine max
In short: as §1

Italian ryegrass = experiment: Test C pre-/postemergence test; type: in vivo, Lolium multiflorum
In short: as §1

[3] = test system: common (oilseed) sunflower; experiment: Test C pre-/postemergence test; type: in vivo, Helianthus annuus
In short: as §1

wheat = experiment: Test C pre-/postemergence test; type: in vivo, Triticum aestivum
In short: as §1

woolly cupgrass = experiment: Test C pre-/postemergence test; type: in vivo, Eriochloa villosa
In short: as §1

[4] = 62 g ai/ha, Preemergence, scale 0 to 100
[5] = 125 g ai/ha, preemergence, scale 0 (no effect) to 100 (complete control)
[6] = Preemergence, 31 g ai/ha, scale 0 to 100 (0 no effect, 100 complete control)
[7] = preemergence, 250 g ai/ha, scale 0 (no effect) to 100 (complete control)
[8] = Postemergence, 500 g ai/ha, 0 is no effect, 100 is complete control
[9] = Preemergence, 125 g ai/ha, 0 no effect, 100 complete control

C#CCOc1c(C[S+]([O-])c2cccc[n+]2[O-])c(C(F)(F)F)nn1C (stereo not drawn) [Compound 76] was tested, and the “Crabgrass, Large plant response rating” value (crabgrass; [4]) was 85, the “Crabgrass, Large plant response rating” value (crabgrass; [5]) was 98 and the “Plant response rating, Crabgrass, Large” value (crabgrass; [6]) was 85. The “Crabgrass, Large plant response rating” value (crabgrass; [7]) was 100, the “Kochia plant response rating” value (kochia; [4]) was 100 and the “Kochia plant response rating” value (kochia; [5]) was 100. For the same compound, the “Plant response rating, Kochia” value (kochia; [6]) was 70, the “Kochia plant response rating” value (kochia; [7]) was 100 and the “Blackgrass plant response rating” value (blackgrass; [4]) was 100. For the same compound, the “Blackgrass plant response rating” value (blackgrass; [5]) was 100, the “Plant response rating, Blackgrass” value (blackgrass; [6]) was 0 and the “Blackgrass plant response rating” value (blackgrass; [7]) was 100. The “Plant response rating, Barnyardgrass” value (barnyardgrass; Postemergence, 125 g ai/ha) was 70, the “Barnyardgrass plant response rating” value (barnyardgrass; [8]) was 80 and the “Barnyardgrass plant response rating” value (barnyardgrass; [9]) was 80. For the same compound, the “Plant response rating, Barnyardgrass” value (barnyardgrass; Preemergence, 500 g ai/ha) was 100, the “Morningglory plant response rating” value (morningglory [1]; [4]) was 20 and the “Morningglory plant response rating” value (morningglory [1]; [5]) was 100. The “Plant response rating, Morningglory” value (morningglory [1]; [6]) was 0, the “Morningglory plant response rating” value (morningglory [1]; [7]) was 100 and the “Cocklebur plant response rating” value (cocklebur; [4]) was 0. For the same compound, the “Cocklebur plant response rating” value (cocklebur; [5]) was 0, the “Plant response rating, Cocklebur” value (cocklebur; [6]) was 0 and the “Cocklebur plant response rating” value (cocklebur; [7]) was 10. For the same compound, the “Nutsedge, Yellow plant response rating” value (yellow nutsedge; [4]) was 50, the “Nutsedge, Yellow plant response rating” value (yellow nutsedge; [5]) was 80 and the “Plant response rating, Nutsedge, Yellow” value (yellow nutsedge; [6]) was 0. The “Nutsedge, Yellow plant response rating” value (yellow nutsedge; [7]) was 95, the “Plant response rating, Morningglory” value (morningglory [2]; Postemergence, 125 g ai/ha) was 70 and the “Morningglory plant response rating” value (morningglory [2]; [8]) was 90. The “Morningglory plant response rating” value (morningglory [2]; [9]) was 50, the “Plant response rating, Morningglory” value (morningglory [2]; Preemergence, 500 g ai/ha) was 90 and the “Plant response rating, Sedge, Umbrella” value (umbrella sedge; 62 g ai/ha, scale 0 to 100 (0 no effect, 100 complete control)) was 0. The “Plant response rating, Sedge, Umbrella” value (umbrella sedge; 250 g ai/ha, scale 0 to 100, 0 no effect, 100 complete control, 13 to 15 days) was 100, the “Corn plant response rating” value (corn; [4]) was 80 and the “Corn plant response rating” value (corn; [5]) was 100. The “Plant response rating, Corn” value (corn; [6]) was 0, the “Corn plant response rating” value (corn; [7]) was 100 and the “Foxtail, Green plant response rating” value (green foxtail; [4]) was 100. The “Foxtail, Green plant response rating” value (green foxtail; [5]) was 100, the “Plant response rating, Foxtail, Green” value (green foxtail; [6]) was 70 and the “Foxtail, Green plant response rating” value (green foxtail; [7]) was 100. The “Pigweed plant response rating” value (pigweed; [4]) was 80, the “Pigweed plant response rating” value (pigweed; [5]) was 80 and the “Plant response rating, Pigweed” value (pigweed; [6]) was 50. For the same compound, the “Pigweed plant response rating” value (pigweed; [7]) was 100, the “Soybean plant response rating” value (soybean; [4]) was 40 and the “Soybean plant response rating” value (soybean; [5]) was 80. For the same compound, the “Plant response rating, Soybean” value (soybean; [6]) was 0, the “Soybean plant response rating” value (soybean; [7]) was 95 and the “Ryegrass, Italian plant response rating” value (Italian ryegrass; [4]) was 50. For the same compound, the “Ryegrass, Italian plant response rating” value (Italian ryegrass; [5]) was 70, the “Plant response rating, Ryegrass, Italian” value (Italian ryegrass; [6]) was 0 and the “Ryegrass, Italian plant response rating” value (Italian ryegrass; [7]) was 100. The “Sunflower plant response rating” value [3, 4] was 35, the “Sunflower plant response rating” value [3, 5] was 50 and the “Plant response rating, Sunflower” value [3, 6] was 0. For the same compound, the “Sunflower plant response rating” value [3, 7] was 70, the “Wheat plant response rating” value (wheat; [4]) was 60 and the “Wheat plant response rating” value (wheat; [5]) was 98. For the same compound, the “Plant response rating, Wheat” value (wheat; [6]) was 0, the “Wheat plant response rating” value (wheat; [7]) was 100 and the “Cupgrass, Woolly plant response rating” value (woolly cupgrass; [4]) was 70. For the same compound, the “Cupgrass, Woolly plant response rating” value (woolly cupgrass; [5]) was 95, the “Plant response rating, Cupgrass, Woolly” value (woolly cupgrass; [6]) was 0 and the “Cupgrass, Woolly plant response rating” value (woolly cupgrass; [7]) was 100.
